# Test results reported in patent US20120116027A1, “PROCESS FOR THE PURIFICATION OF HUMAN GROWTH HORMONE POLYPEPTIDES USING AFFINITY RESINS COMPRISING SPECIFIC LIGANDS” (priority 2008, published 2012).
# Where a SMILES comes first, the peptide text is derived from it. [ ]: non-standard residue; d: D form. The star is where a group is joined. X1 = O=C(c1ccc2ccccc2c1O)*; Dap = NC[CH](N)C(=O)O; Aib = CC(C)(N)C(=O)O
# Legend:
# wild type hGH = wild type hGH (Homo sapiens, UniProt P01241); assay: Binding capacity for wild type hGH of ligands synthesized on Fractogel Amino (1 mL columns); details: ligand on Fractogel Amino; for Measured binding capacity (mg hGH/mL resin): load 5 mg/mL hGH in 25 mM Tris-HCl pH 7.50, 0.5 mL/min, elution gradient 1M NaCl/25 mM Tris pH 7.5
# Experimental: (§1) were stepwise synthesized on Fractogel Amino (Merck) with amine loading 0.16 mmol/g and particle size 40-90 μm. The resins were washed thoroughly with DMF, DCM, and ethanol and packed in 1 mL columns and washed with 0.2 M NaOH and then with 20% ethanol, and equilibrated with 25 mM Tris-HCl at pH=7.50 (buffer A).
# Binding capacity for wild type hGH was measured for each resin sample by • a) loading the column with a 5 mg/mL solution of hGH in buffer A at a flow rate of 0.5 mL/min, • b) washing the column with at least 10 column volumes of buffer A until a steady low UV absorbance of the buffer leaving the column was observed, • c) eluting the protein by applying a gradient of 1M NaCl/25 mM Tris at pH=7.5 (buffer B) • d) cleaning the column with 0.2 M NaOH, then with buffer B, and then with buffer A.
# The binding capacity was calculated by integrating the UV signal during step (c) and indicated for each ligand above.
# hGH [1] = target: T1, hGH (Homo sapiens, UniProt P01241); assay: Resin selectivity test with hGH fermentation broth, judged by SDS page gels of the eluate; details: ligand on Fractogel Amino, hGH fermentation broth diluted five times with buffer A
# T1 construct: made in house; host or cells: E. coli
# Experimental: as §1
# Resin selectivity was tested by • (a) loading the column with hGH fermentation broth diluted five times with buffer A • (b) washing the column with at least 10 column volumes of buffer A until a steady low UV absorbance of the buffer leaving the column was observed, • (c) eluting the protein by applying a gradient of buffer B • (d) cleaning the column with 0.2 M NaOH, then with buffer B, and then with buffer A.
# “Observed selectivity” was judged by SDS page gels of the eluate […] and indicated for each ligand above. An example of a resin with “very good” selectivity (ligand L11 on Fractogel) and an example of a resin with “moderate” selectivity (ligand L6 on Fractogel) are given in FIG. 3.
# hGH [2] = target: T1, hGH; assay: Affinity purification of hGH from E. coli micro-filtrate with ligand L10 resin (purity and recovery); details: load 50 mM BisTris-HCl pH 6.25
# Experimental: (§2) Ligand L10 from Example 1 was synthesized step-wise on Fractogel Amino M (Supplied by Merck KgaA), and the resulting affinity resin was packed in Tricorn 5/50, 1 mL (GE Healthcare).
# (§3) hGH micro-filtrate buffer: 2.61 mg/mL hGH E. coli micro-filtrate from hGH harvest. A frozen 15 mL sample was thawed at room temperature and filtered using a syringe-driven filter ([…]). Diluted to 0.52 mg hGH/mL with Buffer A.
# An elution buffer of 200 mM Tris-HCl, pH 8.00, 1 M NaCl, 30% propylene glycol results in high recovery of hGH. This elution buffer and the aforementioned 50 mM BisTris-HCl, pH 6.5 load buffer was used. The column was overloaded with hGH. The results from an experiment using these conditions are shown below:
# The loading buffer was changed to 50 mM BisTris-HCl at pH 6.25 and different elution buffers at pH 7.25, 7.50 and 8.00 were tested.
# Chromatograms and gels are shown in FIG. 8 for the run with the following conditions: Load buffer: 50 mM BisTris at pH 6.25 and Elution buffer: 50 mM BisTris at pH 8.00
# hGH [3] = target: T1, hGH; assay: Dynamic 10% BT capacity of ligand L10 on Fractogel Amino M; format: binding; details: load 50 mM BisTris-HCl pH 6.50, 0.5 mL/min (150 cm/h), 15° C.
# Experimental: as §2
# (§4) hGH standard: hGH was dissolved to 20 mg/mL in freshly made 50 mM NH41-1CO3, then diluted to 2 or 3.3 mg/mL with Buffer A (50 mM Tris-HCl, pH=7.50, T=15° C. (20° C. in Äkta)).
# as §3
# (§5) Buffer A1: 50 mM BisTris-HCl, pH=6.50, T=15° C. (20° C. in Äkta), flow 0.5 mL/min (150 cm/h)
# (§6) Buffer Z1: 25 mM Tris-HCl, 1M NaCl, pH=7.50, T=15° C. (20° C. in Äkta), flow 0.5 mL/min (150 cm/h)
# hGH [4] = assay: as above; format: binding, human; details: load 50 mM BisTris-HCl pH 6.50, 0.5 mL/min (150 cm/h), 15° C.
# Experimental: as §2, §4, §3, §5, §6
# hGH [5] = target: T1, hGH; assay: Evaluation of ligand synthesized directly on Fractogel in 5 mL scale (capacity, recovery, purity); format: binding; details: load 50 mM BisTris pH 6.25, elution 50 mM BisTris pH 8.00 gradient; for Dynamic 10% BT capacity for micro-filtrate hGH / Dynamic 10% BT capacity for pure hGH: 2 mL/min
# Experimental: Ligand L14 from Example 1 was synthesized directly on Fractogel. The resin was evaluated in 5 mL scale.
# Load buffer: 50 mM BisTris at pH 6.25
# Elution buffer: 50 mM BisTris at pH 8.00 gradient
# Temperature: 15° C. (20° measured by Äkta)
# Ligand L16 from Example 1 was synthesized directly on Fractogel Amino. This resin was evaluated in 5 mL scale.
# T1 sequence (P01241 27-217): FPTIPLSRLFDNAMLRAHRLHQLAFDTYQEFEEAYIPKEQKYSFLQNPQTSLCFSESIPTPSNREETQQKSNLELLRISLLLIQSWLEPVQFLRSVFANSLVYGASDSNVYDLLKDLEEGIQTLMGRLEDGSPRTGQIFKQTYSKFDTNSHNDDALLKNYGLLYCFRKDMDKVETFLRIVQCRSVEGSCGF
# Sequence of wild type hGH (P01241 27-217): as above
Structure (SMILES),Measured binding capacity (mg hGH/mL resin) (wild type hGH),Observed selectivity (hGH [1]),other results
CC(O)C(N)C(=O)NC(CC(=O)O)C(=O)NC(CNC(=O)c1ccc2nccnc2c1)C(=O)O (stereo not shown) [L17],<0.5 mg hGH/mL resin,,
O=C(NC[C@H](NC(=O)[C@H]1CCCN1C(=O)[C@H]1CCCN1)C(=O)O)c1c2c(nc3ccccc13)CCCC2 [L12],2 mg hGH/mL resin,Good,
N=C(N)NCCC[C@H](NC(=O)[C@@H](N)Cc1ccccc1)C(=O)N[C@@H](CNC(=O)C1c2ccccc2Oc2ccccc21)C(=O)O [L2],7 mg hGH/mL resin,Good,
N=C(N)NCCC[C@H](N)C(=O)N[C@@H](Cc1ccc(O)cc1)C(=O)N[C@@H](CNC(=O)C1c2ccccc2Oc2ccccc21)C(=O)O [L1],14 mg hGH/mL resin,Moderate,
N[C@@H](Cc1ccccc1)C(=O)N[C@@H](Cc1ccccc1)C(=O)N[C@@H](CNC(=O)C1c2ccccc2Oc2ccccc21)C(=O)O [L4],1 mg hGH/mL resin,Good,
CC[C@H](C)[C@H](N)C(=O)N[C@@H](Cc1ccccc1)C(=O)N[C@@H](CNC(=O)c1c2c(nc3ccccc13)CCCC2)C(=O)O [L10],3 mg hGH/mL resin,Very good,Purity of eluate (hGH [2]; Elution pH 7.25): 91%; Purity of eluate (hGH [2]; Elution pH 7.50): 85%; Purity of eluate (hGH [2]; Elution pH 8.00): 85%; Dynamic 10% BT capacity (purified hGH) (hGH [3]): 6.7 mg/mL; dynamic 10% BT capacity for hGH micro-filtrate (hGH [4]): 3.22 mg/mL
NCCCC[C@H](N)C(=O)N[C@@H](Cc1ccccc1)C(=O)N[C@@H](CNC(=O)c1c2c(nc3ccccc13)CCCC2)C(=O)O [L14],>5 mg hGH/mL resin,Good,Purity (hGH [5]): 71%; Dynamic 10% BT capacity for micro-filtrate hGH (hGH [5]): 6.7 mg/mL; Dynamic 10% BT capacity for pure hGH (hGH [5]): 16.3 mg/mL
N[C@@H](Cc1ccc(O)cc1)C(=O)N[C@@H](Cc1ccccc1)C(=O)N[C@@H](CNC(=O)C1c2ccccc2Oc2ccccc21)C(=O)O [L3],5 mg hGH/mL resin,Moderate,
CC(C)(NC(=O)C(CNC(=O)c1ccc2ccccc2c1O)NC(=O)C(Cc1ccc(O)cc1)NC(=O)C(N)CCCNC(=N)N)C(=O)O (stereo not shown) [L19] (H-RY[Dap](X1)[Aib]-OH; configuration not given here),,,binding capacity (wild type hGH; same procedures as Example 1): < 0.5 mg/mL
C[C@@H](O)[C@H](NC(=O)[C@@H](N)CCCNC(=N)N)C(=O)N[C@@H](CNC(=O)c1c2c(nc3ccccc13)CCCC2)C(=O)O [L13],>10 mg hGH/mL resin,Moderate,
NCCCC[C@H](NC(=O)[C@@H](N)Cc1ccccc1)C(=O)N[C@@H](CNC(=O)c1scc(S(=O)(=O)c2ccccc2)c1N)C(=O)O [L6],13 mg hGH/mL resin,Moderate,
CC[C@@H](C)[C@H](NC(=O)[C@@H](N)Cc1c[nH]c2ccccc12)C(=O)N[C@@H](CNC(=O)c1scc(S(=O)(=O)c2ccccc2)c1N)C(=O)O [L7],2 mg hGH/mL resin,Good,
N=C(N)NCCC[C@H](N)C(=O)N[C@@H](Cc1ccccc1)C(=O)N[C@@H](CNC(=O)C1CC(=O)c2ccccc21)C(=O)O (stereo partly shown) [L9],10 mg hGH/mL resin,Good,
Cc1nn(-c2ccccc2)nc1C(=O)NC[C@H](NC(=O)[C@H](Cc1ccccc1)NC(=O)[C@@H](N)Cc1c[nH]c2ccccc12)C(=O)O [L5],2 mg hGH/mL resin,Good,
CC[C@@H](C)[C@H](N)C(=O)N[C@@H](CCCCN)C(=O)N[C@@H](CNC(=O)c1c(C)nc2ccccn12)C(=O)O [L16],>10 mg hGH/mL resin,Moderate,Purity (hGH [5]): 70%; Dynamic 10% BT capacity for micro-filtrate hGH (hGH [5]): 5.7 mg/mL; Dynamic 10% BT capacity for pure hGH (hGH [5]): 11.9 mg/mL
Cc1ccc([N+](=O)[O-])c(C(=O)NCC(NC(=O)C(Cc2c[nH]cn2)NC(=O)C(N)CC(=O)O)C(=O)O)c1 (stereo not shown) [L18],<0.5 mg hGH/mL resin,,
Cc1nc2ccccn2c1C(=O)NC[C@H](NC(=O)[C@H](CCCNC(=N)N)NC(=O)[C@@H](N)Cc1ccccc1)C(=O)O [L15],>5 mg hGH/mL resin,Good,
N[C@@H](Cc1ccccc1)C(=O)N[C@@H](Cc1ccccc1)C(=O)N[C@@H](CNC(=O)c1c2c(nc3ccccc13)CCCC2)C(=O)O [L11],2 mg hGH/mL resin,Very good,
CC[C@H](C)[C@H](N)C(=O)N[C@@H](Cc1ccc(O)cc1)C(=O)N[C@@H](CNC(=O)c1scc(S(=O)(=O)c2ccccc2)c1N)C(=O)O [L8],6 mg hGH/mL resin,Moderate,
